{"source": "patent US9702824B2", "about": "“pH sensors” (PROMEGA CORPORATION, priority 2012, dated 2017)", "key": {"[1]": {"test_system": "U2-OS cells stably expressing HaloTag-NLS"}, "[2]": {"test_system": "HaloTag-EDG1 fusion protein in U2-OS cells", "test": "Restoration of internalization by DYNASORE washout", "type": "cell-based", "settings": "80 uM removed by washing, then 1 uM S1P for 60 minutes", "protocol": "In such experiments, blocked internalization of HaloTag-EDG1 was restored. […] After the overnight incubation, the cells were simultaneously labeled with a HaloTag pH sensor (PBI-4479) and 80 uM DYNASORE (Sigma). Control cells were labeled with the HaloTag pH sensor, but were not treated with DYNASORE. The cells were then stimulated with 1 uM S1P and imaged (T=0 in FIG. 17). At this point, DYNASORE prevents the dynamin-dependent internalization/endocytosis of HaloTag-EDG1. DYNASORE was then removed by washing three times for 5 minutes with McCoy's 5A+10% FBS, and the media replaced with complete media containing 1 uM S1P. The cells were incubated for 60 minutes and imaged as previously described. Internalization of HaloTag-EDG1 was restored as detected and monitored by the pH sensor (SEE FIG. 19)."}, "[3]": {"test_system": "HaloTag-EDG1 fusion protein in U2-OS cells", "test": "Blocking internalization by DYNASORE, detected with pH sensor", "type": "cell-based", "settings": "80 uM, 1 uM S1P for 60 minutes, detected with 1 uM PBI-4479", "protocol": "In addition to dynamin, DYNASORE, a reversible, non-competitive inhibitor of dynamin, can also be used to block internalization/endocytosis with the blocking detected and monitored using the pH sensor of the present invention. […] After the overnight incubation, the cells were simultaneously labeled for 30 minutes with 1 uM HaloTag pH sensor (PBI-4479) and 80 uM Dynasore (Sigma). Control cells were labeled with the 1 uM HaloTag pH sensor, but were not treated with Dynasore. The cells were then stimulated with 1 uM S1P for 60 minutes and imaged as previously described."}, "[4]": {"test": "Ex/Em printed with the synthesis procedures", "type": "physicochemical"}, "[5]": {"test": "pH dependence of fluorescence emission", "type": "physicochemical", "protocol": "(§1) Experiments were conducted during development of embodiments of the present invention to determine the fluorescence characteristics of exemplary pH sensor agents PBI-4453 and PBI-4479 (SEE FIG. 1). Fluorescence excitation and emission intensities were measured at a range of wavelengths (SEE FIG. 2). […] Fluorescence detection was performed at a range of pH values (SEE FIG. 3)."}, "U2OS cells": {"test_system": "U2OS cells", "test": "Toxicity, CELLTITER-GLO Luminescent Cell Viability Assay (Example 3)", "type": "cell-based", "settings": "0 nM to 20 uM, 24 hour", "protocol": "The toxicity of dyes PBI-4479 and PBI-4453 was tested in U2OS cells. The cells were plated at 20,000 cells/well in McCoy's 5A media+10% FBS into wells of a 96-well plate. The compounds were then serially diluted 2-fold in McCoy's 5A+10% FBS to a 10× working solution. 10 ul of the working solution was added to the cells to a final concentration of 0 nM to 20 uM. The treated cells were then incubated overnight at 37° C., 5% CO2. Toxicity was tested using Promega's CELLTITER-GLO Luminescent Cell Viability Assay according to the manufacturer's protocol. No toxicity was seen across varying concentrations of the compounds over the 24 hour period (SEE FIG. 9)."}, "[6]": {"test": "Fluorescence excitation and emission spectra of pH sensor agents", "type": "physicochemical", "protocol": "as §1"}, "[7]": {"test_system": "U2-OS cells stably expressing HaloTag-NLS", "test": "pH sensor permeability, pulse and chase with HaloTag Oregon Green (Example 12)", "settings": "2 uM pulse for 10 minutes"}, "U2-OS HaloTag-EDG1 cells [8]": {"target": "T1, U2-OS HaloTag-EDG1 cells (Homo sapiens, UniProt P21453)", "T1 construct": "host or cells: U2-OS HaloTag-EDG1 cells", "T1 sequence (P21453 with tags, fused parts or gaps)": "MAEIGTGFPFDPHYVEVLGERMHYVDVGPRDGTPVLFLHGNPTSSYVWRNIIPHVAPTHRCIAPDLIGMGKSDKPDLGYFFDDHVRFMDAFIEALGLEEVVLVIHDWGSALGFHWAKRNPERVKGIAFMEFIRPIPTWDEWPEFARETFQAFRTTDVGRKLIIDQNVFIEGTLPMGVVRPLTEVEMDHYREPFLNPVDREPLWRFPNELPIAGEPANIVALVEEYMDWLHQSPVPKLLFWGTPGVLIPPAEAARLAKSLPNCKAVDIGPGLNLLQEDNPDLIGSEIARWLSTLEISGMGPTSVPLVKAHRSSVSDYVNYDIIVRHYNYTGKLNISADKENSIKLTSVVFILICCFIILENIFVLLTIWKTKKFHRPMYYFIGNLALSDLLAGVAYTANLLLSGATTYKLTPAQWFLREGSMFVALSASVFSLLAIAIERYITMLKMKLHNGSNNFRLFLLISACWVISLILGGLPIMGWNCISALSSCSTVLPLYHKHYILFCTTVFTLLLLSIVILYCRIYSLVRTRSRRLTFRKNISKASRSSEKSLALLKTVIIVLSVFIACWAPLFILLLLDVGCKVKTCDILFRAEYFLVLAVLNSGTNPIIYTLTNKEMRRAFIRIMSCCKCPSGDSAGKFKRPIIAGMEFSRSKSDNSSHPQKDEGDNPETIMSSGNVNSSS", "test": "Detection of internalization using an impermeable pH sensor (Example 13)", "type": "cell-based", "settings": "500 nM sensor", "protocol": "The next day, the media was replaced with McCoy's 5A+0.5% cFBS and incubated overnight at 37° C./5% CO2. […] 1 uM S1P (Sphingosine-1-Phosphate) or carrier (DMSO) was then added to the cells, and images were acquired sequentially on Olympus FV500 at 37° C./5% CO2."}, "wild-type U2-OS cells": {"test_system": "wild-type U2-OS cells", "test": "Toxicity of HaloTag pH sensors, CELLTITER Glo Cell Viability Assay (Example 9)", "type": "cell-based", "settings": "0-10 uM, overnight", "protocol": "U2-OS cells were plated at 10,000 cells/well into wells of 96-well plates and incubated overnight. The next day, 0-10 uM (serially diluted 1:2) PBI-4959, PBI-5004 or PBI-4479 was added to the cells and again incubated overnight. After incubation, the media containing the HaloTag® pH sensors was removed, and 100 ul of fresh media (McCoy's 5A+10% FBS) was added. Cell viability was determined using the CELLTITER Glo Cell Viability Assay according to the manufacturer's protocol (Promega Corporation). Luminescence was read on a GloMAX®-Multi luminometer."}, "U2-OS HaloTag-EDG1 cells [9]": {"target": "T1, U2-OS HaloTag-EDG1 cells", "test": "Detection of internalization using a permeable pH sensor (Example 13)", "type": "cell-based", "settings": "500 nM sensor added after stimulation with or without 1 uM S1P", "protocol": "To evaluate internalization using a permeable pH Sensor, U2-OS HaloTag®-EDG1 cells (Promega Corporation) were exposed to PBI-5004 and internalization of HaloTag®-EDG1 assessed. […] The next day, the media was replaced with McCoy's 5A+0.5% cFBS and incubated overnight at 37° C./5% CO2. After incubation, 1 uM S1P (Sphingosine-1-Phosphate) was added, and the cells incubated for 30 minutes at 37° C./5% CO2."}}, "note": "Where two headings read alike, the source gives them in different places.", "data": [{"compound": "4-((1-(4-((2-(2-((6-chlorohexyl)oxy)ethoxy)ethyl)carbamoyl)phenyl)-3-oxo-6,9,12,15-tetraoxa-2-azaheptadecan-17-yl)) 3′,6′-bis(4-(4-sulfobutyl)piperazin-1-yl) rhodamine(5′,6′)carboxamide [PBI-4995]", "values": [{"measurement": "cell permeability", "setting": "[1]", "value": "non-permeability"}]}, {"compound": "O=C(N/N=C/c1ccc(O)c(O)c1)c1cc2ccccc2cc1O", "note": "[DYNASORE]", "values": [{"measurement": "HaloTag-EDG1 internalization after washout", "setting": "[2]", "value": "restored"}, {"measurement": "effect on HaloTag-EDG1 internalization", "setting": "[3]", "value": "prevented dynamin-dependent internalization/endocytosis"}]}, {"compound": "CN1CCN(c2ccc3c(c2)Oc2c4c5c(cc2=C3c2cc(C(=O)O)ccc2C(=O)[O-])CCC[N+]=5CCC4)CC1", "note": "[Hexahydroquinoiizino-(4-methylpiperazin-1-yl}-rhodamine-6′-carboxyic acid]", "values": [{"measurement": "Em", "setting": "[4]", "value": 586, "unit": "nm"}, {"measurement": "Ex", "setting": "[4]", "value": 559, "unit": "nm"}]}, {"compound": "CN1CCN(c2ccc3c(-c4cc(C(=O)NCCOCCOCCOCCOCCOCCOCCCCCCCl)ccc4C(=O)[O-])c4ccc(=[N+]5CCN(C)CC5)cc-4oc3c2)CC1", "note": "[PBI-4453, N-(24-chloro-3,6,9,12,15,18-hexaoxatetracosyl)-3′,6′-bis(4-methylpiperazin-1-yl)-rhodamine-(5,6)carboxamide]", "values": [{"measurement": "pH at or below which maximal fluorescence intensity is exhibited", "setting": "[5]", "value": "≤ 4.15"}, {"measurement": "percent of maximal fluorescence", "setting": "[5]; at pH 7.53 or higher", "value": "≤ 5", "unit": "%"}, {"measurement": "pKa", "setting": "[5]; from pH dependence of fluorescence", "value": "~5.84"}, {"measurement": "toxicity (cell viability)", "setting": "U2OS cells", "value": "No toxicity"}, {"measurement": "emission maximum", "setting": "[6]", "value": 571, "unit": "nm"}, {"measurement": "excitation maximum", "setting": "[6]", "value": 541, "unit": "nm"}]}, {"compound": "O=C(NCCOCCOCCCCCCCl)c1cccc(CNC(=O)c2ccc(C(=O)[O-])c(-c3c4ccc(=[N+]5CCN(CCCCS(=O)(=O)O)CC5)cc-4oc4cc(N5CCN(CCCCS(=O)(=O)O)CC5)ccc34)c2)c1", "note": "[PBI-4958]", "values": [{"measurement": "cell permeability", "setting": "[7]", "value": "non-permeability"}]}, {"compound": "O=C(NCCOCCOCCCCCCCl)c1ccc(CNC(=O)c2ccc(C(=O)[O-])c(-c3c4ccc(=[N+]5CCN(CCCCS(=O)(=O)O)CC5)cc-4oc4cc(N5CCN(CCCCS(=O)(=O)O)CC5)ccc34)c2)cc1", "note": "[PBI-4959, 4-((4-((2-(2-((6-chlorohexyl)oxy)ethoxy)ethyl)carbamoyl)benzyl))-3′,6′-bis(4-(4-sulfobutyl)piperazin-1-yl) rhodamine(5′,6′) carboxamide]", "values": [{"measurement": "Em", "setting": "[4]", "value": 564, "unit": "nm"}, {"measurement": "Ex", "setting": "[4]", "value": 532, "unit": "nm"}, {"measurement": "detection of HaloTag-EDG1 internalization", "setting": "U2-OS HaloTag-EDG1 cells [8]; with 1 uM S1P", "value": "ability to detect internalization of HaloTag-EDG1"}, {"measurement": "detection of background HaloTag-EDG1 internalization", "setting": "U2-OS HaloTag-EDG1 cells [8]; without 1 uM S1P", "value": "ability to detect background internalization of HaloTag-EDG1"}, {"measurement": "cell permeability", "setting": "[7]", "value": "non-permeability"}, {"measurement": "toxicity (cell viability)", "setting": "wild-type U2-OS cells", "value": "non-toxicity"}]}, {"compound": "O=C(CCOCCOCCOCCOCCNC(=O)c1ccc(C(=O)[O-])c(-c2c3ccc(=[N+]4CCN(CCCCS(=O)(=O)O)CC4)cc-3oc3cc(N4CCN(CCCCS(=O)(=O)O)CC4)ccc23)c1)NCc1cccc(C(=O)NCCOCCOCCCCCCCl)c1", "note": "[PBI-4994]", "values": [{"measurement": "cell permeability", "setting": "[7]", "value": "non-permeability"}]}, {"compound": "O=C(NCC1CCC(C(=O)NCCOCCOCCCCCCCl)CC1)c1ccc(C(=O)[O-])c(-c2c3ccc(=[N+]4CCN(CCCCS(=O)(=O)O)CC4)cc-3oc3cc(N4CCN(CCCCS(=O)(=O)O)CC4)ccc23)c1", "note": "(centres unmarked) [PBI-5004, 4-(((4-((2-(2-((6-chlorohexyl)oxy)ethoxy)ethyl)carbamoyl)cyclohexyl)methyl)) 3′,6′-bis(4-(4-sulfobutyl)piperazin-1-yl) rhodamine(5′,6′) carboxamide]", "values": [{"measurement": "Em", "setting": "[4]", "value": 560, "unit": "nm"}, {"measurement": "Ex", "setting": "[4]", "value": 532, "unit": "nm"}, {"measurement": "detection of HaloTag-EDG1 internalization", "setting": "U2-OS HaloTag-EDG1 cells [9]", "value": "ability to detect internalization of HaloTag-EDG1"}, {"measurement": "toxicity (cell viability)", "setting": "wild-type U2-OS cells", "value": "non-toxicity"}]}]}
